Assay results: the supplement of paper PMC10307832

Assays:
Experiment in all cases: relative viability (nuclei count vs DMSO), 5 days (fraction); higher = more cells survive
Adavosertib + Navitoclax = compound: C=CCn1c(=O)c2cnc(Nc3ccc(N4CCN(C)CC4)cc3)nc2n1-c1cccc(C(C)(C)O)n1 [Adavosertib] + CC1(C)CCC(c2ccc(Cl)cc2)=C(CN2CCN(c3ccc(C(=O)NS(=O)(=O)c4ccc(N[C@H](CCN5CCOCC5)CSc5ccccc5)c(S(=O)(=O)C(F)(F)F)c4)cc3)CC2)C1 [Navitoclax] (partner 0.5 µM)
Summary of the method: (§1)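 Nuclei were stained with Hoechst during a one-step fixation (final 0.05% Triton X-100, 1% formaldehyde, 1 ug/ml Hoechst) carried out 5 days after dosing, then counted on 4× images. The cells, lung cancer lines in 1536-well plates, had been dosed by pin tool the day after seeding with one drug alone or a fixed anchor-drug dose plus five library-drug doses (not always all listed) in √10 steps. Relative viability is the nuclei count in treated wells divided by that in vehicle wells, and each value is the median of duplicate plates.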

Adavosertib + Foretinib = compound: C=CCn1c(=O)c2cnc(Nc3ccc(N4CCN(C)CC4)cc3)nc2n1-c1cccc(C(C)(C)O)n1 [Adavosertib] + COc1cc2c(Oc3ccc(NC(=O)C4(C(=O)Nc5ccc(F)cc5)CC4)cc3F)ccnc2cc1OCCCN1CCOCC1 [Foretinib] (partner 0.25 µM)
Summary of the method: as §1

Adavosertib = compound: C=CCn1c(=O)c2cnc(Nc3ccc(N4CCN(C)CC4)cc3)nc2n1-c1cccc(C(C)(C)O)n1 [Adavosertib]
Summary of the method: (§2)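 Five library-drug doses spaced by √10 were pinned onto vehicle-anchored 1536-well plates of lung cancer cell lines that had been kept overnight at 37 °C. Cells went 5 days without medium change, then were fixed, permeabilised and Hoechst-stained together, imaged at 4× and counted by MetaXpress. Viability is the ratio of treated-well to vehicle-well nuclei, taken as a median over plates. Plates required control CV below 25% and at least one doubling.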

Nelarabine = compound: COc1nc(N)nc2c1ncn2[C@@H]1O[C@H](CO)[C@@H](O)[C@@H]1O [Nelarabine]
Summary of the method: as §2

Cell Line	relative viability (Adavosertib + Navitoclax; first compound 0.01 µM)	relative viability (Adavosertib + Navitoclax; first compound 0.03162 µM)	relative viability (Adavosertib + Navitoclax; first compound 0.1 µM)	relative viability (Adavosertib + Navitoclax; first compound 0.3162 µM)	relative viability (Adavosertib + Foretinib; first compound 0.01 µM)	relative viability (Adavosertib + Foretinib; first compound 0.03162 µM)	relative viability (Adavosertib + Foretinib; first compound 0.1 µM)	relative viability (Adavosertib + Foretinib; first compound 0.3162 µM)	relative viability (Adavosertib; 0.01 µM)	relative viability (Adavosertib; 0.03162 µM)	relative viability (Adavosertib; 0.1 µM)	relative viability (Adavosertib; 0.3162 µM)	relative viability (Nelarabine; 0.01 µM)	relative viability (Nelarabine; 0.03162 µM)	relative viability (Nelarabine; 0.1 µM)	relative viability (Nelarabine; 0.3162 µM)	relative viability (Nelarabine; 1 µM)
HCC-366	0.983	1.07	1.12	1.08	0.96	0.935	0.924	1.04	1.04	1.05	0.998	1.01	1.28	0.865	0.982	1.08	1.02
HCC-78	0.81	0.686	0.894	0.79	0.54	0.628	0.587	0.628	0.85	0.973	1.03	1.04	1.01	0.942	–	1.05	0.932
NCI-H358	–	–	–	–	0.764	0.682	0.592	0.285	0.838	0.785	0.752	0.467	1.1	0.928	0.804	1.06	1.05
NCI-H23	0.89	0.677	0.938	0.368	1.04	0.891	0.75	0.261	0.925	0.98	0.659	0.313	1.22	0.911	1.01	0.987	0.96
PC-14	1.06	0.963	1.02	0.528	0.934	0.957	0.933	0.636	1.01	1.01	1.01	0.605	1.19	0.99	1.21	1.07	1.03
SW 900	–	–	–	–	–	0.727	0.853	0.907	0.738	1.07	0.885	0.49	0.998	0.897	1.06	1	0.896
NCI-H1650	1.15	1.26	1.25	1.1	1.12	1.15	1.31	0.797	0.867	0.981	0.943	0.472	1.13	0.999	0.845	0.978	0.928
H3255	0.374	0.473	0.508	0.447	0.892	0.851	0.921	1.04	0.888	1.07	1.02	1.08	0.998	1.08	0.987	0.963	0.97
NCI-H1563	–	–	–	–	0.882	0.949	1.05	0.931	0.954	0.894	0.917	1.01	1.04	1.03	0.951	0.985	0.986
A549	1.21	1.26	1.26	0.901	1.04	0.984	1.24	0.838	0.933	0.984	1	1.01	1.19	1.04	1.02	1	0.911
UMC-11	0.311	0.287	0.331	0.321	0.981	1.06	1.06	1.08	0.973	0.943	1	1.08	1.1	0.821	0.987	1.07	0.996
LOU-NH91	0.718	0.688	0.663	0.53	0.875	0.945	0.943	0.88	0.956	0.992	0.974	0.918	0.948	0.944	0.935	1.02	0.956
NCI-H1299	1.08	1.03	1.06	1.06	1.08	1.11	1.1	0.437	1.03	0.999	1.04	0.789	1.07	1.07	1.04	1.07	1.03
HCC-44	1.02	1.01	1.01	1.06	–	–	–	–	0.927	0.987	0.971	0.984	1	0.949	0.997	0.947	0.867
NCI-H1437	1.05	1.13	1.16	1.11	1.2	1.35	1.27	1.25	1.02	0.912	1.03	0.981	1.21	0.989	0.994	1.04	0.918
HARA	1.11	1.11	1.13	1.1	0.977	0.892	0.84	0.335	0.929	1.04	1.01	0.897	1.2	1.14	0.97	1.06	1.01
EBC-1	0.416	0.413	0.448	0.205	0.111	0.101	0.115	0.0875	0.974	1.02	1.07	0.971	1.19	1.14	1.05	1.01	0.975
NCI-H2085	1.28	1.05	1.06	1.11	0.785	0.954	0.887	0.921	0.991	1.01	1	1.03	1	1.04	0.963	0.995	0.958
NCI-H322M	–	1.25	1.12	0.953	0.886	0.978	0.821	0.517	0.85	0.953	0.845	0.61	0.963	0.896	0.884	0.937	0.923
